Laboratory results taken from PubChem BioAssay AID192 (DTP/NCI, 2004).
Toxic doses and inconclusive results are not listed. Rule for the calls: active = survival T/C of 150% or more; inactive = T/C below 125% in these data.

Tested on: BDF1 mice, B16 melanoma ip, median survival T/C
Experiment: NCI In Vivo Anticancer Drug Screen. Data for tumor model B16 Melanoma (intraperitoneal) in B6D2F1 (BDF1) mice
Conditions: endpoint: median survival time, higher = longer survival
Procedure, shortened: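 Compounds were tested in mice carrying transplantable tumors. Survival or tumor size was recorded, and each value is the treated-group measurement (T) divided by that of the vehicle-treated control group (C).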

[1] = dose: 50.0 mg/kg/injection, schedule: Q01DX009 (ip), vehicle: Klucel (hydroxypropylcellulose) (HPC)
[2] = dose: 100.0 mg/kg/injection, schedule: Q01DX009 (ip), vehicle: Klucel (hydroxypropylcellulose) (HPC)
[3] = dose: 200.0 mg/kg/injection, schedule: Q01DX009 (ip), vehicle: Klucel (hydroxypropylcellulose) (HPC)
[4] = dose: 12.5 mg/kg/injection, schedule: Q01DX009 (ip), vehicle: Klucel (hydroxypropylcellulose) (HPC)
[5] = dose: 25.0 mg/kg/injection, schedule: Q01DX009 (ip), vehicle: Klucel (hydroxypropylcellulose) (HPC)
[6] = dose: 100.0 mg/kg/injection, schedule: Q01DX009 (ip), vehicle: saline with Tween-80
[7] = dose: 200.0 mg/kg/injection, schedule: Q01DX009 (ip), vehicle: saline with Tween-80
[8] = dose: 400.0 mg/kg/injection, schedule: Q01DX009 (ip), vehicle: saline with Tween-80
[9] = dose: 12.5 mg/kg/injection, schedule: Q01DX009 (ip), vehicle: saline with Tween-80
[10] = dose: 25.0 mg/kg/injection, schedule: Q01DX009 (ip), vehicle: saline with Tween-80
[11] = dose: 50.0 mg/kg/injection, schedule: Q01DX009 (ip), vehicle: saline with Tween-80
[12] = dose: 100.0 mg/kg/injection, schedule: Q04DX003 (ip), vehicle: saline with Tween-80
[13] = dose: 200.0 mg/kg/injection, schedule: Q04DX003 (ip), vehicle: saline with Tween-80
[14] = dose: 400.0 mg/kg/injection, schedule: Q04DX003 (ip), vehicle: saline with Tween-80
[15] = dose: 6.25 mg/kg/injection, schedule: Q01DX009 (ip), vehicle: Klucel (hydroxypropylcellulose) (HPC)

Measured: T/C

O=C(O)C(Cc1cc(I)c(O)c(I)c1)c1ccccc1 (configuration not stated)
inactive: [1] 100 % of control | [2] 109 % of control | [3] 100 % of control

c1cc(OCC2CO2)ccc1OCC1CO1 (configuration not stated)
inactive: [4] 100 % of control | [5] 105 % of control | [1] 110 % of control | [2] 120 % of control

Cc1ccc(NC(=S)NN)cc1C
inactive: [5] 100 % of control | [1] 96 % of control | [2] 96 % of control

C=C1Sc2ccccc2N1C
inactive: [4] 96 % of control | [5] 94 % of control

NC(=O)C(Cl)(Cl)Cl
inactive: [6] 105 % of control | [7] 96 % of control | [8] 98 % of control

CN1CCN(Cc2nc3cccc4c3c([n+]2[O-])-c2ccccc2-4)CC1
inactive: [9] 101 % of control | [10] 95 % of control | [11] 105 % of control | [6] 112 % of control | [7] 116 % of control

CCOC(=O)/C=C(\CBr)OC
inactive: [4] 105 % of control | [5] 93 % of control

NC(=O)c1nn(C2OC(CO)C(O)C2O)c2ncnc(N)c12 (configuration not stated)
inactive: dose: 1.25 mg/kg/injection, schedule: Q01DX009 (ip), vehicle: Klucel (hydroxypropylcellulose) (HPC) 96 % of control | dose: 2.5 mg/kg/injection, schedule: Q01DX009 (ip), vehicle: Klucel (hydroxypropylcellulose) (HPC) 104 % of control | dose: 5.0 mg/kg/injection, schedule: Q01DX009 (ip), vehicle: Klucel (hydroxypropylcellulose) (HPC) 107 % of control | dose: 10.0 mg/kg/injection, schedule: Q01DX009 (ip), vehicle: Klucel (hydroxypropylcellulose) (HPC) 118 % of control | [5] 103 % of control

CC(=O)c1ccc2ccccc2c1O
inactive: [9] 107 % of control | [10] 93 % of control | [11] 106 % of control | [12] 100 % of control | [13] 110 % of control | [14] 100 % of control

OC(CC(O)(C(F)(F)F)C(F)(F)F)c1cccc(Cl)c1 (configuration not stated)
inactive: dose: 50.0 mg/kg/injection, schedule: Q04DX003 (ip), vehicle: gum acacia 105 % of control | dose: 100.0 mg/kg/injection, schedule: Q04DX003 (ip), vehicle: gum acacia 90 % of control | dose: 200.0 mg/kg/injection, schedule: Q04DX003 (ip), vehicle: gum acacia 90 % of control

C=CCn1c(=S)[nH]c2ccccc2c1=O
inactive: [11] 96 % of control | [6] 96 % of control | [12] 105 % of control | [7] 93 % of control | [13] 94 % of control | [14] 92 % of control

Cc1cc2c3ccc(C)[n+](C)c3ccc2n1C
inactive: dose: 0.08 mg/kg/injection, schedule: Q01DX009 (ip), vehicle: saline 102 % of control | dose: 0.15 mg/kg/injection, schedule: Q01DX009 (ip), vehicle: saline 92 % of control | dose: 0.3 mg/kg/injection, schedule: Q01DX009 (ip), vehicle: saline 97 % of control | dose: 1.25 mg/kg/injection, schedule: Q01DX009 (ip), vehicle: saline 100 % of control | dose: 2.5 mg/kg/injection, schedule: Q01DX009 (ip), vehicle: saline 94 % of control

CC1(C)C2CCC([CH2][Hg][Cl])C1C2 (configuration not stated)
inactive: dose: 2.5 mg/kg/injection, schedule: Q01DX009 (ip), vehicle: saline with Tween-80 87 % of control | dose: 5.0 mg/kg/injection, schedule: Q01DX009 (ip), vehicle: saline with Tween-80 103 % of control | dose: 10.0 mg/kg/injection, schedule: Q01DX009 (ip), vehicle: saline with Tween-80 87 % of control | dose: 20.0 mg/kg/injection, schedule: Q01DX009 (ip), vehicle: saline with Tween-80 96 % of control

O=Cc1ccc([N+](=O)[O-])s1
inactive: dose: 3.12 mg/kg/injection, schedule: Q01DX009 (ip), vehicle: saline with Tween-80 99 % of control | dose: 6.25 mg/kg/injection, schedule: Q01DX009 (ip), vehicle: saline with Tween-80 96 % of control | [9] 96 % of control | [10] 86 % of control

CCC(C)Sc1nc(N)nc2c1ncn2C1OC(CO)C(O)C1O (configuration not stated)
inactive: dose: 37.5 mg/kg/injection, schedule: Q01DX009 (ip), vehicle: Klucel (hydroxypropylcellulose) (HPC) 113 % of control | dose: 75.0 mg/kg/injection, schedule: Q01DX009 (ip), vehicle: Klucel (hydroxypropylcellulose) (HPC) 99 % of control | dose: 150.0 mg/kg/injection, schedule: Q01DX009 (ip), vehicle: Klucel (hydroxypropylcellulose) (HPC) 89 % of control

CCCCC(SC(CC)(C(N)=O)c1ccccc1)C(=O)O (configuration not stated)
inactive: [11] 100 % of control | [6] 99 % of control | [7] 92 % of control | [8] 90 % of control

O=C1CN=C(c2ccccc2)c2cc(Cl)ccc2N1
inactive: [15] 102 % of control | [4] 90 % of control | [5] 90 % of control

O=c1oc(-c2ccccc2Cl)nc2cc(Cl)ccc12
inactive: [5] 113 % of control | [1] 90 % of control

COc1ccc(C(=O)c2cc(OC)c(OC)c(OC)c2)cc1OC
inactive: [2] 110 % of control | [6] 111 % of control | [3] 105 % of control | [7] 104 % of control | dose: 400.0 mg/kg/injection, schedule: Q01DX009 (ip), vehicle: Klucel (hydroxypropylcellulose) (HPC) 115 % of control | [8] 102 % of control

CNCCCN1c2ccccc2CCc2ccccc21
inactive: dose: 3.12 mg/kg/injection, schedule: Q01DX009 (ip), vehicle: saline 105 % of control | [15] 106 % of control | dose: 6.25 mg/kg/injection, schedule: Q01DX009 (ip), vehicle: saline 96 % of control | [4] 101 % of control | dose: 12.5 mg/kg/injection, schedule: Q01DX009 (ip), vehicle: saline 102 % of control | [5] 100 % of control | dose: 25.0 mg/kg/injection, schedule: Q01DX009 (ip), vehicle: saline 87 % of control | [1] 86 % of control | dose: 50.0 mg/kg/injection, schedule: Q01DX009 (ip), vehicle: saline 101 % of control

CCCCN(CCCC)CCNc1ccc(Cl)c2oc3cc(C)ccc3c(=O)c12
inactive: [9] 100 % of control | [10] 93 % of control | dose: 25.0 mg/kg/injection, schedule: Q04DX003 (ip), vehicle: saline with Tween-80 105 % of control | dose: 50.0 mg/kg/injection, schedule: Q04DX003 (ip), vehicle: saline with Tween-80 92 % of control | [12] 86 % of control

CC[C@H]1CN2CCc3cc(OC)c(OC)cc3[C@@H]2C[C@@H]1C[C@H]1NCCc2c1[nH]c1ccc(O)cc21
inactive: dose: 0.25 mg/kg/injection, schedule: Q01DX009 (ip), vehicle: Klucel (hydroxypropylcellulose) (HPC) 111 % of control | dose: 0.5 mg/kg/injection, schedule: Q01DX009 (ip), vehicle: Klucel (hydroxypropylcellulose) (HPC) 114 % of control | dose: 1.0 mg/kg/injection, schedule: Q01DX009 (ip), vehicle: Klucel (hydroxypropylcellulose) (HPC) 123 % of control

O=C(Nc1ccc(F)cc1)Nc1cccc2ccccc12
inactive: [2] 97 % of control | [3] 94 % of control
